Measurements taken from ChEMBL document CHEMBL2010716, “Structure based design of an in vivo active hydroxamic acid inhibitor of P. aeruginosa LpxC” (Bioorg Med Chem Lett, 2012).
≈ marks a conversion by molar mass, not a printed value. Calls of active or inactive are those of the source. The rule behind the calls is not given here.

How the values were obtained:
[1] = biological target: T1, UDP-3-O-acyl-N-acetylglucosamine deacetylase (Pseudomonas aeruginosa (strain ATCC 15692 / PAO1 / 1C / PRS 101 / LMG12228), UniProt P47205); test: Inhibition of Pseudomonas aeruginosa LpxC
T1 sequence (P47205 whole entry): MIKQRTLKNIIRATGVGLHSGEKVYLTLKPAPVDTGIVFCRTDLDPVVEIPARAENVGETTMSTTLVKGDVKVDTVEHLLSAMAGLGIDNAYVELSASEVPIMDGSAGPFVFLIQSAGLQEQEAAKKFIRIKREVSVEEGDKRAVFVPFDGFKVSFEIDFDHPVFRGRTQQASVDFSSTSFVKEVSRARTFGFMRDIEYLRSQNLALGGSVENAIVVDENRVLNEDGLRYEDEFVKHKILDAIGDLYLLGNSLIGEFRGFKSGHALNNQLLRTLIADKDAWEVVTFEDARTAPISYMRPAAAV

[2] = test system: Pseudomonas aeruginosa; test: Antibacterial activity against wild type Pseudomonas aeruginosa UI-18 by NCCLS method; type: functional
[3] = test system: Pseudomonas aeruginosa; test: Antibacterial activity against efflux pump knock-down Pseudomonas aeruginosa PAO280 by twofold broth microdilution technique; type: functional
[4] = Half life in human hepatocytes; type: ADME, cell-based, Liver, Hepatocyte
[5] = Kinetic solubility of the compound; type: physicochemical; conditions: read-out: Kinetic_solubility
[6] = test system: Pseudomonas aeruginosa; test: Antibacterial activity against wild type Pseudomonas aeruginosa; type: functional
[7] = Half life in rat hepatocytes; type: ADME, cell-based, Liver, Hepatocyte
[8] = Kinetic solubility of the compound at pH 6.5; type: physicochemical; conditions: buffer, read-out: Kinetic_solubility
[9] = test system: Pseudomonas aeruginosa; test: Antibacterial activity against wild type Pseudomonas aeruginosa UI-18 infected in sc dosed mouse; type: functional, organism-based
[10] = test system: Pseudomonas aeruginosa; test: Antibacterial activity against wild type Pseudomonas aeruginosa UI-18 infected in iv dosed mouse; type: functional; conditions: UI-18, iv, read-out: PD50
[11] = biological target: T2, UDP-3-O-acyl-N-acetylglucosamine deacetylase (Escherichia coli K-12, UniProt P0A725); test: Inhibition of Escherichia coli LpxC
T2 sequence (P0A725 whole entry): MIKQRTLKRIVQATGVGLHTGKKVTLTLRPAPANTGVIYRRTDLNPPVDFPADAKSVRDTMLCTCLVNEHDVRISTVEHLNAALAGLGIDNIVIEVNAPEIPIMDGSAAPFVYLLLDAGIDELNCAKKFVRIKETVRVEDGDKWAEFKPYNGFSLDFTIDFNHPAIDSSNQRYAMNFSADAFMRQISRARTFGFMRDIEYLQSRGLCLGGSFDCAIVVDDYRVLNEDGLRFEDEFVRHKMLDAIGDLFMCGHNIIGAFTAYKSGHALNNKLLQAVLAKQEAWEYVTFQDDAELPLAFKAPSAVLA

[12] = test system: Pseudomonas aeruginosa; test: Antibacterial activity against Pseudomonas aeruginosa C53; type: functional

Row | IC50 [1] [nM] | MIC [2] [µg/mL] | MIC [3] [µg/mL] | Compound | also measured
1 | 0.8 | 8 (≈ 21.8 µM) | 0.125 (≈ 0.34 µM) | C[C@@](OCc1ccc(-c2ccccc2)cc1)(C(=O)NO)[C@@H](O)c1c[nH]cn1 | 
2 | 0.8 | 8 (≈ 21.7 µM) | 0.125 (≈ 0.339 µM) | C[C@@](OCc1ccc(-c2ccccc2)cc1)(C(=O)NO)[C@@H](O)c1ccno1 | 
3 | 3.3 | 16 (≈ 53.4 µM) | 0.5 (≈ 1.67 µM) | CC(CO)(CCc1ccc(-c2ccccc2)cc1)C(=O)NO (configuration not stated) | half-life [4]: 1.2 h; solubility kinetic [5]: 89 µM (≈ 26.6 µg/mL)
4 | 18 | 32 (≈ 84.6 µM) | 0.5 (≈ 1.32 µM) | C[C@@](OCc1ccc(-c2ccccc2)cc1)(C(=O)NO)[C@@H](O)c1cccnc1 | 
5 | 15 | 32 (≈ 84.6 µM) | 0.25 (≈ 0.661 µM) | C[C@](OCc1ccc(-c2ccccc2)cc1)(C(=O)NO)[C@@H](O)c1ccccn1 | 
6 | 22 | > 64 | 4 (≈ 13.3 µM) | CC(CO)(OCc1ccc(-c2ccccc2)cc1)C(=O)NO (racemic) | MIC [6]: > 64 µg/mL; half-life [4]: 6 h; solubility kinetic [5]: 200 µM (≈ 60.3 µg/mL)
7 | 8 |  |  | CCc1ccc(-c2ccc(C(=O)N[C@H](C(=O)NO)[C@@H](C)O)cc2)cc1 | MIC [6]: 4 µg/mL (≈ 11.7 µM); half-life [4]: 3.83 h; half-life [7]: 0.75 h
8 | 286 | > 64 | 32 (≈ 102 µM) | CC(CO)(NC(=O)c1ccc(-c2ccccc2)cc1)C(=O)NO (racemic) | MIC [6]: > 64 µg/mL; half-life [4]: 3.83 h; half-life [7]: 3.67 h; solubility kinetic [5]: 200 µM (≈ 62.9 µg/mL)
9 | 0.4 | 4 (≈ 10.9 µM) | 0.25 (≈ 0.68 µM) | C[C@@](OCc1ccc(-c2ccccc2)cc1)(C(=O)NO)[C@@H](O)c1ccn[nH]1 | 
10 |  | 1.75 (≈ 4.58 µM) | 0.015 (≈ 0.0392 µM) | Cc1cc([C@H](O)[C@](C)(OCc2ccc(-c3ccccc3)cc2)C(=O)NO)no1 | half-life [4]: 0.333 h; solubility kinetic [8]: 59 µM (≈ 22.6 µg/mL)
11 | 28 | > 64 | > 64 | CCOCC[C@H](O)[C@](C)(OCc1ccc(-c2ccccc2)cc1)C(=O)NO | 
12 | 3 | 8 (≈ 21.7 µM) | 0.25 (≈ 0.679 µM) | C[C@@](OCc1ccc(-c2ccccc2)cc1)(C(=O)NO)[C@@H](O)c1ncco1 | 
13 |  | > 64 | 32 (≈ 93.2 µM) | CC(C)[C@H](O)[C@](C)(OCc1ccc(-c2ccccc2)cc1)C(=O)NO | 
14 |  |  |  | C[C@@H](N)[C@@H](NC(=O)N1CCN(c2ccc(C#Cc3ccccc3)cc2)CC1)C(=O)NO | MIC [6]: 12.5 µg/mL (≈ 29.7 µM)
15 | 51 | > 64 | 8 (≈ 21.2 µM) | C[C@@](OCc1ccc(-c2ccccc2)cc1)(C(=O)NO)[C@@H](O)c1ccccc1 | 
16 | 8 | > 64 | 3 (≈ 9.11 µM) | CC[C@H](O)[C@@](C)(OCc1ccc(-c2ccccc2)cc1)C(=O)NO | 
17 | 390 |  |  | CC(CO)(COc1ccc(-c2ccccc2)cc1)C(=O)NO (configuration not stated) | half-life [4]: 1.43 h; solubility kinetic [5]: 26 µM (≈ 7.83 µg/mL)
18 | 25 | 33 (≈ 86.5 µM) | 0.19 (≈ 0.498 µM) | Cn1ccnc1[C@H](O)[C@](C)(OCc1ccc(-c2ccccc2)cc1)C(=O)NO | 
19 |  | 32 (≈ 101 µM) | 0.5 (≈ 1.59 µM) | C[C@H](O)[C@](C)(OCc1ccc(-c2ccccc2)cc1)C(=O)NO | 
20 | 26 | > 64 | 2 (≈ 5.23 µM) | Cn1nncc1[C@H](O)[C@](C)(OCc1ccc(-c2ccccc2)cc1)C(=O)NO | 
21 |  | > 64 | 64 (≈ 179 µM) | CC(C)C[C@H](O)[C@](C)(OCc1ccc(-c2ccccc2)cc1)C(=O)NO | 
22 | 90 |  |  | CCCC[C@H](O)[C@](C)(OCc1ccc(-c2ccccc2)cc1)C(=O)NO | 
23 |  |  |  | O=C(NO)[C@@H](Cc1ccc2ccccc2c1)NS(=O)(=O)c1ccc2ccccc2c1 | Ki [11]: 20 nM; MIC [12]: 4 µg/mL (≈ 9.51 µM)
24 | 311 |  |  | CC(C)(OCc1ccc(-c2ccccc2)cc1)C(=O)NO | MIC [6]: > 64 µg/mL
25 | 0.4 | 6 (≈ 16.3 µM) | 0.06 (≈ 0.163 µM) | C[C@@](OCc1ccc(-c2ccccc2)cc1)(C(=O)NO)[C@@H](O)c1ccon1 | 

Row | Compound | IC50 [1] [nM] | MIC [2] [µg/mL] | MIC [3] [µg/mL] | also measured
26 | C[C@@H](O)[C@](C)(OCc1ccc(-c2ccccc2)cc1)C(=O)NO | 4 | 64 (≈ 203 µM) | 0.75 (≈ 2.38 µM) | 
27 | C[C@@](OCc1ccc(-c2ccccc2)cc1)(C(=O)NO)[C@@H](O)c1cc(CO)on1 | 0.6 | 1 (≈ 2.51 µM) | 0.015 (≈ 0.0376 µM) | Activity [9]: inactive; half-life [4]: 2.33 h; ED50 [10]: 37 mg/kg; solubility kinetic [8]: 130 µM (≈ 51.8 µg/mL)
